Experimental data from patent US7713971B2, “1,2,4-triazine derivatives, preparation and use thereof in human therapy” (Pierre Fabre Medicament, priority 2005, dated 2010).
Like-named read-outs stand apart in the source and are kept apart here.

Tests used:
human PPARα = target: T1, human PPARα (Homo sapiens, UniProt Q07869); assay: Reporter gene transactivation, hPPAR-GAL4 alpha; assay type: cell-based; conditions: transfected Cos-7 cells, Gal-4 luciferase reporter, 24 hours treatment
T1 construct: expressed in transfected cells; host or cells: Cos-7 cells (ATCC, CRL-1651)
T1 sequence (Q07869 239-466 limits assumed): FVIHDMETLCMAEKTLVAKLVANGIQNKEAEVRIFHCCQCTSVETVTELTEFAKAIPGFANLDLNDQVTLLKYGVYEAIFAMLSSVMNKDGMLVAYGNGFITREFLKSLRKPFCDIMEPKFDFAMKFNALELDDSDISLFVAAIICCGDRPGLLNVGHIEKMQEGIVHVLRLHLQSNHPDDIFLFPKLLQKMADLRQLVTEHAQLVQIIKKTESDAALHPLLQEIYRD

human PPARγ = target: T2, human PPARγ (Homo sapiens, UniProt P37231); assay: Reporter gene transactivation, hPPAR-GAL4 gamma; assay type: cell-based; conditions: transfected Cos-7 cells, Gal-4 luciferase reporter, 24 hours treatment
T2 construct: expressed in transfected cells; host or cells: Cos-7 cells (ATCC, CRL-1651)
T2 sequence (P37231 238-503 limits assumed): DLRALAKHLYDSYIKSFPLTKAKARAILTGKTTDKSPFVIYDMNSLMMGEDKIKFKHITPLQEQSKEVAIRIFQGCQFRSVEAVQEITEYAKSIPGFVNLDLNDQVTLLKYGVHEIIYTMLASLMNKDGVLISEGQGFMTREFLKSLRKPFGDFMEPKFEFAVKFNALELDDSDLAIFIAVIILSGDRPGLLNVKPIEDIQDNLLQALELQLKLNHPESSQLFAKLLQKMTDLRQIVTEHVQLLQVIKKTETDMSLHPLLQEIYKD

human PPARδ = target: T3, human PPARδ (Homo sapiens, UniProt Q03181); assay: Reporter gene transactivation, hPPAR-GAL4 delta; assay type: cell-based; conditions: transfected Cos-7 cells, Gal-4 luciferase reporter, 24 hours treatment
T3 construct: expressed in transfected cells; host or cells: Cos-7 cells (ATCC, CRL-1651)
T3 sequence (Q03181 211-439 limits assumed): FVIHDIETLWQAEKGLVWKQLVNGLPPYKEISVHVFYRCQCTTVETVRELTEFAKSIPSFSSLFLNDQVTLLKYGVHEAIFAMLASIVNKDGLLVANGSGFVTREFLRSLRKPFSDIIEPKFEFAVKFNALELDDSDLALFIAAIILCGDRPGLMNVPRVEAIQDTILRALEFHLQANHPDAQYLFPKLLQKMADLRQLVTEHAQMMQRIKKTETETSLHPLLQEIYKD

[1] = test system: insulin-resistant male rat (Ico: ZUCKER-fa/fa); assay: Normalization of metabolic parameters (cholesterol, plasma triglycerides) in insulin-resistant rat; assay type: in vivo; conditions: oral route, once per day for four days, Zucker fa/fa rat unfed 16-18 hours; for change in vivo at 2.5 mg/kg / change in vivo at 10 mg/kg: 96 h
Description: Normalization of metabolic parameters (cholesterol, plasma triglycerides) in an insulin-resistant male rat (Ico: ZUCKER-fa/fa), unfed for 16-18 hours, after treatment by oral route, once per day for four days, with the compounds to be evaluated or their administration vehicle.
These metabolic parameters are measured by spectrophotometry at the beginning and the end of each animal's treatment.

[2] = at 2.5 mg/kg, read-out: Plasma cholesterol
[3] = at 10 mg/kg, read-out: Plasma cholesterol
[4] = at 10 mg/kg, read-out: Plasma triglycerides

| EC50 (human PPARα) [µM] | EC50 (human PPARγ) [µM] | EC50 (human PPARδ) [µM] | Structure (SMILES) | change in vivo at 2.5 mg/kg [1, 2] [%] | change in vivo at 10 mg/kg [1, 3] [%] | change in vivo at 10 mg/kg [1, 4] [%] | Plasma triglycerides ([1]; at 2.5 mg/kg) | Plasma triglycerides ([1]; at 10 mg/kg) |
| --- | --- | --- | --- | --- | --- | --- | --- | --- |
| 0.01 to 0.03 | 0.1 to 0.3 | ~3 | CCCCn1nc(OCCCCCc2cccc(OC(C)(C)C(=O)OCC)c2)c(=O)n(CCCC)c1=O [Example 13, Ethyl 2-{3-[5-(2,4-dibutyl-3,5-dioxo-2,3,4,5-tetrahydro-[1,2,4]triazin-6-yloxy)-pentyl]-phenoxy}-2-methyl-propionate] | -8 | -12 | -28 | inactive at 2.5 |  |
| 0.01 to 0.03 | ~1 | ~10 | CCCCn1c(=O)c(OCCCCCc2cccc(OC(C)(C)C(=O)OCC)c2)nn(CCCC(F)(F)F)c1=O [Example 14, Ethyl 2-(3-{5-[4-Butyl-3,5-dioxo-2-(4,4,4-trifluoro-butyl)-2,3,4,5-tetrahydro-[1,2,4]triazin-6-yloxy]-pentyl}-phenoxy)-2-methyl-propionate] |  |  |  |  |  |
| 3 to 10 | 3 to 10 | 3 to 10 | CCCCCCCn1nc(OCCCCc2ccc(OC(C)(C)C(=O)OCC)cc2)c(=O)n(C)c1=O [Example 29, Ethyl 2-{4-[4-(2-heptyl-4-methyl-3,5-dioxo-2,3,4,5-tetrahydro-[1,2,4]triazin-6-yloxy)-butyl]-phenoxy}-2-methyl-propionate] |  |  |  |  |  |
| ~0.1 | ~1 | 3 to 10 | CCCCCCCn1c(=O)c(OCCCCc2ccc(OC(C)(C)C(=O)OCC)cc2)nn(CCCC(F)(F)F)c1=O [Example 31, Ethyl 2-(4-{4-[4-heptyl-3,5-dioxo-2-(4,4,4-trifluoro-butyl)-2,3,4,5-tetrahydro-[1,2,4]triazin-6-yloxy]-butyl}-phenoxy)-2-methyl-propionate] |  |  |  |  |  |
| 0.03 to 0.1 | 3 to 10 | ~10 | CCOC(=O)C(C)(C)Oc1cccc(OCCCOc2nn(CCCC(F)(F)F)c(=O)n(CCCC(F)(F)F)c2=O)c1 [Example 35, Ethyl 2-(3-{3-[3,5-dioxo-2,4-bis-(4,4,4-trifluoro-butyl)-2,3,4,5-tetrahydro-[1,2,4]triazin-6-yloxy]-propoxy}-phenoxy)-2-methyl-propionate] |  |  |  |  |  |
| 0.3 to 1 | 0.3 to 1 | ~3 | CCCCCCCn1c(=O)c(NCCCOc2ccc(OC(C)(C)C(=O)OCC)cc2)nn(CCCC(F)(F)F)c1=O [Example 48, Ethyl 2-(4-{3-[4-heptyl-3,5-dioxo-2-(4,4,4-trifluoro-butyl)-2,3,4,5-tetrahydro-[1,2,4]triazin-6-ylamino]-propoxy}-phenoxy)-2-methyl-propionate] |  |  |  |  |  |
| 0.03 to 0.1 | > 10 | ~10 | CCOC(=O)C(C)(C)Oc1cccc(CCCNc2nn(CCCC(F)(F)F)c(=O)n(CCCC(F)(F)F)c2=O)c1 [Example 66, Ethyl 2-(3-{3-[3,5-dioxo-2,4-bis-(4,4,4-trifluoro-butyl)-2,3,4,5-tetrahydro-[1,2,4]triazin-6-ylamino]-propyl}-phenoxy)-2-methyl-propionate] |  | -9 |  |  | inactive at 10 |
| 0.01 to 0.03 | 1 to 3 | 3 to 10 | CCOC(=O)C(C)(C)Oc1cccc(CCCCNc2nn(CCCC(F)(F)F)c(=O)n(CC=C(C)C)c2=O)c1 [Example 76, Ethyl 2-methyl-2-(3-{4-[4-(3-methyl-but-2-enyl)-3,5-dioxo-2-(4,4,4-trifluoro-butyl)-2,3,4,5-tetrahydro-[1,2,4]triazin-6-ylamino]-butyl}-phenoxy)-propionate] | -16 | -22 | -7 |  |  |

More lines, now with the values behind:

| Structure (SMILES) | EC50 (human PPARα) [µM] | EC50 (human PPARγ) [µM] | EC50 (human PPARδ) [µM] | change in vivo at 2.5 mg/kg [1, 2] [%] | change in vivo at 10 mg/kg [1, 3] [%] | change in vivo at 10 mg/kg [1, 4] [%] | Plasma triglycerides ([1]; at 2.5 mg/kg) | Plasma triglycerides ([1]; at 10 mg/kg) |
| --- | --- | --- | --- | --- | --- | --- | --- | --- |
| CCCCCCCn1nc(OCCCc2ccc(OC(C)(C)C(=O)OCC)cc2)c(=O)n(C)c1=O [Example 27, Ethyl 2-{4-[3-(2-heptyl-4-methyl-3,5-dioxo-2,3,4,5-tetrahydro-[1,2,4]triazin-6-yloxy)-propyl]-phenoxy}-2-methyl-propionate] | ~3 | 3 to 10 | 3 to 10 |  |  |  |  |  |
| CCOC(=O)C(C)(C)Oc1ccc(OCCCOc2nn(CCCC(F)(F)F)c(=O)n(CCCC(F)(F)F)c2=O)cc1 [Example 39, Ethyl 2-(4-{3-[3,5-dioxo-2,4-bis-(4,4,4-trifluoro-butyl)-2,3,4,5-tetrahydro-[1,2,4]triazin-6-yloxy]-propoxy}-phenoxy)-2-methyl-propionate] | 0.1 to 0.3 | 3 to 10 | ~3 |  |  |  |  |  |
| CCCCCCCn1nc(NCCOc2ccc(OC(C)(C)C(=O)OCC)cc2)c(=O)n(C)c1=O [Example 40, Ethyl 2-{4-[2-(2-heptyl-4-methyl-3,5-dioxo-2,3,4,5-tetrahydro-[1,2,4]triazin-6-ylamino)-ethoxy]-phenoxy}-2-methyl-propionate] | 3 to 10 | ~10 | > 10 |  |  |  |  |  |
| CCOC(=O)C(C)(C)Oc1ccc(OCCNc2nn(CCCC(F)(F)F)c(=O)n(CCCC(F)(F)F)c2=O)cc1 [Example 41, Ethyl 2-(4-{2-[3,5-dioxo-2,4-bis-(4,4,4-trifluoro-butyl)-2,3,4,5-tetrahydro-[1,2,4]triazin-6-ylamino]-ethoxy}-phenoxy)-2-methyl-propionate] | ~0.1 | ~10 | 1 to 3 |  | -28 |  |  | inactive at 10 |
| CCCCCCCn1nc(NCCOc2ccc(OC(C)(C)C(=O)OCC)cc2)c(=O)n(CCCCCCC)c1=O [Example 42, Ethyl 2-{4-[2-(2,4-diheptyl-3,5-dioxo-2,3,4,5-tetrahydro-[1,2,4]triazin-6-ylamino)-ethoxy]-phenoxy}-2-methyl-propionate] | ~1 | > 10 | 1 to 3 |  |  |  |  |  |
| CCCCCCCn1c(=O)c(NCCCCc2cccc(OC(C)(C)C(=O)OCC)c2)nn(Cc2ccccc2)c1=O [Example 89, Ethyl 2-{3-[4-(2-benzyl-4-heptyl-3,5-dioxo-2,3,4,5-tetrahydro-[1,2,4]triazin-6-ylamino)-butyl]-phenoxy}-2-methyl-propionate] | > 10 | 1 to 3 | 3 to 10 |  |  |  |  |  |
| CCCCCCCn1c(=O)c(NCCc2ccc(OC(C)(C)C(=O)OCC)cc2)nn(C)c1=O [Example 106, Ethyl 2-{4-[2-(4-heptyl-2-methyl-3,5-dioxo-2,3,4,5-tetrahydro-[1,2,4]triazin-6-ylamino)-ethyl]-phenoxy}-2-methyl-propionate] | ~1 |  | > 10 |  |  |  |  |  |
| CCCCCCCn1nc(NCCc2ccc(OC(C)(C)C(=O)OCC)cc2)c(=O)n(Cc2ccccc2)c1=O [Example 109, Ethyl 2-{4-[2-(4 benzyl-2-heptyl-3,5-dioxo-2,3,4,5-tetrahydro-[1,2,4]triazin-6-ylamino)-ethyl]-phenoxy}-2-methyl-propionate] | ~1 |  | 3 to 10 |  |  |  |  |  |
| CCOC(=O)C(C)(C)Oc1ccc(CCNc2nn(COCc3ccccc3)c(=O)n(COCc3ccccc3)c2=O)cc1 [Example 110, Ethyl 2-{4-[2-(2,4-bis-benzyloxymethyl-3,5-dioxo-2,3,4,5-tetrahydro-[1,2,4]triazin-6-ylamino)ethyl]-phenoxy}-2-methyl-propionate] | 1 to 3 |  | > 10 |  |  |  |  |  |
| CCOC(=O)C(C)(C)Oc1ccc(CCN(CCCc2ccccc2)c2nn(C)c(=O)n(C)c2=O)cc1 [Example 115, Ethyl 2-(4-{2-[(2,4-dimethyl-3,5-dioxo-2,3,4,5-tetrahydro-[1,2,4]triazin-6-yl)-(3-phenylpropyl)-amino]-ethyl}-phenoxy)-2-methyl-propionate] | ~3 |  | > 10 |  |  |  |  |  |
| CCCCCCCn1c(=O)c(NCCc2ccc(SC(C)(C)C(=O)OCC)cc2)nn(C)c1=O [Example 122, Ethyl 2-{4-[2-(4-heptyl-2-methyl-3,5-dioxo-2,3,4,5-tetrahydro-[1,2,4]triazin-6-ylamino)-ethyl]-phenylsulfanyl}-2-methyl-propionate] | ~0.3 |  | > 10 |  | -22 | -35 |  |  |
| CC(C)(Oc1ccc(C(=O)c2ccc(Cl)cc2)cc1)C(=O)O [Fenofibric acid, reference compound] | 16.9 |  | > 100 |  |  |  |  |  |
